How the values were obtained:
[1] = system: C57BL6 mice; assay: DNFB-induced delayed type hypersensitivity (ear swelling) in mice; type: in vivo, mouse
Experimental: (§1) Previous studies evaluating the anti-tumor and anti-metastatic effects of fluorinated hexosamine analogs and 3 or 4-F-GlcNAc, specifically, indicate that the dose limiting toxicity was ˜250 mg/kg×6 days and that i.p. administration of these sugar analogs was an efficacious mode of delivery. Thus, in these studies, a maximal dose of 250 mg/kg as well as 100 and […] doses were used in order to make both toxic and efficacy assessments of fluorinated hexosamine analog anti-inflammatory effects. To induce delayed type hypersensitivity (DTH), C57BL6 mice were sensitized on their abdomen on days 0 and 1 with 25 μl of 0.5% 2,4-dinitrofluorobenzene (DNFB) (i.e. hapten) in a 4:1 solution of acetone to olive oil (vehicle). Negative control mice were sensitized with vehicle alone. Mice were then treated from days 0–6 with drug vehicle (0.9% saline), 50 mg/kg 4-F-GlcNAc, 100 mg/kg 4-F-GlcNAc, 250 mg/kg 4-F-GlcNAc or 250 mg/kg GlcNAc (negative sugar control). Hapten-induced inflammation was then promoted on day 6 by challenging the mice with 10 μl of 0.25% DNFB on both sides of the right ear and mice also received 10 μl of vehicle alone on both sides of the left ear as a negative inflammatory control. Ear swelling responses were measured 24 h later on day 7 and subtracted from baseline measurements that were recorded on day 6.
Histological analysis of right ears from mice receiving sensitizing and challenging hapten doses that were treated with saline vehicle control did show the presence of lymphocytic infiltrate and amount of lymphocytic infiltrate corresponded to ear swelling measurements (See FIG. 14 Panel B).

[2] = system: (Galβ1,4GlcNAc)n (LEA staining); assay: Lectin blot with LEA of CLA+ T-cell lysates; type: cell-based, human; details: compared with PBS or GlcNAc treatments
Experimental: (§2) For lectin blotting, cell lysates (25 μg/spot) were spotted onto methanol-permeabilized PVDF membrane and blocked in FBS for 1 h at RT. Blots were then probed with AP-Canavalia ensiformis agglutinin (ConA) (2.0 μg/ml PBS; specificity: α-mannose), AP-Triticum vulgaris (Wheat germ) agglutinin (WGA) (0.5 μg/ml PBS; specificity: terminal GlcNAc or GlcNAcβ1,4GlcNAc) or AP-Lycopersicon esculentum (tomato lectin) agglutinin (LEA) (1.0 μg/ml PBS; specificity: (Galβ1,4GlcNAc)n) for 1 h at RT (All lectins from EY Labs., Inc., San Mateo, Calif.). After washing 3× in PBS/0.1% Tween-20 and 1× in PBS (10 min each), blots were developed with Western Blue®.
(§3) To analyze and identify the glycan modifications on CLA^+ T-cells treated with 4-F-GlcNAc, lectin blotting experiments were performed with ConA (Specificity: α-mannose), WGA (Specificity: terminal GlcNAc or GlcNAcβ1,4GlcNAc) and LEA (Specificity: {Galβ1,4GlcNAc}n).

[3] = system: human colon HT-29 cancer cells; details: HT-29 cells; cited from earlier work
[4] = system: terminal GlcNAc or GlcNAcβ1,4GlcNAc (WGA staining); assay: Lectin blot with WGA of CLA+ T-cell lysates; type: cell-based, human; details: compared with PBS or GlcNAc treatments
Experimental: as §2, §3

[5] = previous studies; cited from earlier work
[6] = system: human CLA+ T-cells; assay: Growth inhibition of human CLA+ T-cell cultures (Trypan-blue exclusion); type: cell-based
Experimental: To determine a suitable concentration of 4-F-GlcNAc for examining glycoconjugate-modifying effects without influencing cell growth or protein synthesis, we performed preliminary growth inhibitory experiments of cells incubated with 4-F-GlcNAc for 2 cell doublings (˜36 h) at 37° C. (cell viability assessed by Trypan-blue exclusion).

[7] = system: C57BL/6 mice; assay: Langerhans cell migration to draining lymph nodes and FITC presentation in mice; type: in vivo, mouse; details: 250 mg/kg/day, cumulative dose of 750 mg/kg, 4-day experiment
Experimental: Six to eight-week old C57BL/6 mice from Charles River Laboratories (Wilmington, Mass.) were housed in pathogen-free conditions in the animal facility at the Harvard Institutes of Medicine and utilized in these experiments. For analysis of LC migration to draining lymph nodes and antigenic presentation by dendritic cells (DC), right ears of mice were painted with 25 μl of 0.5% FITC, a contact sensitizing agent dissolved in acetone-dibutyl phthalate vehicle (1:1 v/v), while left ears were painted with 25 μl of vehicle alone. After 30 h, regional auricular/cervical lymph nodes draining right or left ears, respectively, were isolated and single cell suspensions were prepared. To enrich for DC, cell suspensions were subjected to Optiprep™ (Accurate Chemicals, Westbury, N.Y.) discontinuous gradient centrifugation. […] Positive cells stained with PE-anti-CD11c were gated and analyzed for FITC expression. […]
Following a 30 h incubation, CD11c-positive LC isolated from the draining lymph nodes were analyzed for FITC expression by flow cytometry.

[8] = Toxicity (body weight, white cell counts, tolerability) in DTH mice; type: in vivo, mouse
Experimental: as §1, with “Thus,” for “Previous studies evaluating the anti-tumor and anti-metastatic effects of fluorinated hexosamine analogs and 3 or 4-F-GlcNAc, specifically, indicate that the dose limiting toxicity was ˜250 mg/kg×6 days and that i.p. administration of these sugar analogs was an efficacious mode of delivery. Thus,”

[9] = system: HCELL/CD44 activity on human hematopoietic KG1a cells; assay: Stamper-Woodruff adhesion assay, L-selectin-dependent lymphocyte adherence to KG1a cells; type: cell-based; details: KG1a neuraminidase then recovery in 0.02 mM

Molecule	inflammatory response (ear swelling) ([1]; 250 mg/kg negative sugar control, days 0–6)	LEA staining of lysates [2]	radiolabeled sugar incorporation into cell surface glycoproteins [3]	WGA staining of lysates [4]	inflammatory response (ear swelling) ([1]; 50 mg/kg, days 0–6, i.p., p<0.0002)	inflammatory response (ear swelling) ([1]; 100 mg/kg, days 0–6, i.p.)	inflammatory response (ear swelling) ([1]; 250 mg/kg, days 0–6, i.p.)	inflammatory responses in FucTVII −/− mice ([1]; FucTVII −/− mice)	dose limiting toxicity [5]	IC10 value (growth inhibition) ([6]; 2 cell doublings (~36 h) at 37° C., Trypan-blue exclusion)	growth inhibitory effects on CLA+ T-cell cultures ([6]; treated for 36 hr at concentrations less than 0.5 mM)	weight gain [7]	WBC counts ([8]; 50 mg/kg, days 0–6)	mouse body weight ([8]; 50 mg/kg, days 0–6)	reduction in body weight ([8]; 250 mg/kg, days 0–6)	total white cell counts ([8]; 250 mg/kg, days 0–6)	tolerability ([8]; 250 mg/kg/d×6)	tolerability ([8]; 100 and 50 mg/kg/d×6 days)	% Inhibition (lymphocyte binding) [9]	Mean Lymphocyte Binding [9]
CC(=O)N[C@H]1C(O)O[C@H](CO)[C@@H](O)[C@@H]1O (stereo partly shown) [GlcNAc, N-acetylglucosamine]	no anti-inflammatory effect	–	–	–	–	–	–	–	–	–	–	–	–	–	–	–	–	–	–	–
CC(=O)N[C@H]1C(OC(C)=O)O[C@H](COC(C)=O)[C@@H](F)[C@@H]1OC(C)=O (stereo partly drawn) [4-F-GlcNAc, 2-acetamido-2-deoxy-1,3,6-tri-O-acetyl-4-deoxy-4-fluoro-D-glucopyranose]	–	notably diminished	inhibition of radiolabeled glucosamine, fucose and galactose incorporation	elevated	statistically significant diminution	completely abrogated	completely abrogated	further reduced	~250 mg/kg×6 days	> 0.2 mM	no inhibition of growth	did not show similar weight gain	did not affect	did not affect	~5%	60 % of drug controls	therapy-limiting	well-tolerated	–	–
tunicamycin	–	eliminated	–	eliminated	–	–	–	–	–	–	–	–	–	–	–	–	–	–	99%	3.0
